Experimental data from DBAASP.
In brackets after ≈: the same amount, converted by molar mass. Several values for one entry are separate records, joined by “and”; a condition that tells them apart may be missing. Identical values can stand only once.

Columns and labels:
Assay in all cases: ≥ marks a high value that may be exact or a test limit, other limits are often not marked, values filed in µg/mL are converted to µM
[1] = tested on: Escherichia coli ATCC 25922
[2] = tested on: Staphylococcus aureus ATCC 29213
[3] = tested on: Staphylococcus epidermidis ATCC 12228
[4] = tested on: Pseudomonas aeruginosa ATCC 27853
[5] = tested on: Candida albicans
[6] = tested on: Escherichia coli
[7] = tested on: Staphylococcus aureus
[8] = tested on: Bacillus subtilis
[9] = tested on: Enterococcus faecalis ATCC 29212

Row | Structure (SMILES) | MIC [1] | MIC [2] | MIC [6] [µM] | MIC [7] [µM] | also measured
1 | CC(=O)N[C@@H](CC(C)C)C(=O)N[C@@H](CCCCN)C(=O)N[C@@H](CCCCN)C(=O)N[C@@H](CC(C)C)C(=O)N[C@@H](CC(C)C)C(=O)N1CCC[C@H]1C(=O)N[C@@H](CC(C)C)C(=O)N[C@@H](CC(C)C)C(=O)N[C@@H](CCCCN)C(=O)N[C@@H](CCCCN)C(=O)N[C@@H](CC(C)C)C(=O)N[C@@H](CC(C)C)C(=O)N[C@@H](CCCCN)C(=O)N[C@@H](CC(C)C)C(N)=O [LKKLLPLLKKLLKL] | 10 µM (≈ 17 µg/mL) | 2.5 µM (≈ 4.26 µg/mL) |  |  | 
2 | CC[C@H](C)[C@H](NC(=O)CNC(=O)[C@H](CC(C)C)NC(=O)[C@@H](NC(=O)[C@H](Cc1ccc(O)cc1)NC(=O)[C@@H](NC(=O)[C@H](CO)NC(=O)[C@@H](NC(=O)[C@@H]1CCCN1C(=O)[C@@H](NC(=O)[C@@H](N)CO)C(C)C)[C@@H](C)O)C(C)C)[C@@H](C)O)C(=O)N[C@@H](CCCCN)C(=O)N[C@H](C(=O)N[C@@H](CC(C)C)C(=O)N[C@@H](Cc1c[nH]c2ccccc12)C(=O)N[C@@H](CO)C(=O)N[C@@H](C)C(=O)N[C@@H](Cc1ccc(O)cc1)C(=O)N[C@@H](CCCCN)C(=O)N[C@@H](Cc1cnc[nH]1)C(=O)N[C@@H](CCCN=C(N)N)C(=O)N[C@@H](CCCCN)C(=O)N[C@H](C(=O)N[C@H](C(=O)N[C@@H](CCC(=O)O)C(=O)N[C@@H](CCCCN)C(=O)N[C@@H](CO)C(=O)N[C@@H](Cc1ccccc1)C(=O)N[C@@H](CC(N)=O)C(=O)N[C@@H](CCCCN)C(=O)NCC(=O)N[C@@H](Cc1ccccc1)C(=O)N[C@@H](Cc1ccc(O)cc1)C(=O)N[C@@H](Cc1cnc[nH]1)C(=O)O)[C@@H](C)CC)[C@@H](C)O)[C@@H](C)CC [SVPTSVYTLGIKILWSAYKHRKTIEKSFNKGFYH] |  |  |  |  | MIC [3]: 50 µM (≈ 200 µg/mL)
3 | CC(=O)N[C@@H](CC(C)C)C(=O)N[C@@H](CCCCN)C(=O)N[C@@H](CCCCN)C(=O)N[C@@H](CC(C)C)C(=O)N[C@@H](CC(C)C)C(=O)N[C@@H](CCCCN)C(=O)N1CCC[C@H]1C(=O)N[C@@H](CC(C)C)C(=O)N[C@@H](CCCCN)C(=O)N[C@@H](CCCCN)C(=O)N[C@@H](CC(C)C)C(=O)N[C@@H](CC(C)C)C(=O)N[C@@H](CCCCN)C(=O)N[C@@H](CC(C)C)C(N)=O [LKKLLKPLKKLLKL] | 20 µM (≈ 34.3 µg/mL) | 20 µM (≈ 34.3 µg/mL) |  |  | 
4 | CC(=O)N[C@@H](CCCCN)C(=O)N[C@@H](Cc1ccc(O)cc1)C(=O)N[C@H](C(=O)NCC(=O)N[C@@H](CCCCN)C(=O)N[C@@H](CS)C(=O)N[C@H](C(=O)N[C@@H](CCCCN)C(=O)N[C@@H](CO)C(=O)N[C@@H](CCCCN)C(=O)N[C@@H](CC(N)=O)C(=O)N[C@@H](CCC(=O)O)C(=O)N[C@@H](CS)C(=O)N[C@@H](CCCCN)C(N)=O)[C@@H](C)O)[C@@H](C)O [KYTGKCTKSKNECK] |  |  |  |  | MIC [5]: 10 µM (≈ 16.6 µg/mL)
5 | CC[C@H](C)[C@H](NC(=O)[C@H](CC(C)C)NC(=O)[C@H](C)NC(=O)[C@@H]1CCCN1C(=O)[C@H](CC(C)C)NC(=O)CN)C(=O)N[C@@H](CO)C(=O)N[C@@H](CO)C(=O)N[C@H](C(=O)N[C@@H](CCCCN)C(=O)N[C@@H](CCCN=C(N)N)C(=O)N[C@@H](CCCCN)C(=O)N[C@@H](CCCN=C(N)N)C(=O)N[C@@H](CCC(N)=O)C(=O)N[C@@H](CCC(N)=O)C(N)=O)[C@@H](C)CC [GLPALISSIKRKRQQ] |  |  | > 180 | 22.5 (≈ 38.2 µg/mL) | MIC [8]: ≥ 45.1 µM
6 | CC(C)[C@H](NC(=O)[C@H](Cc1c[nH]c2ccccc12)NC(=O)[C@H](CCCN=C(N)N)NC(=O)[C@@H](N)CCCN=C(N)N)C(=O)N[C@@H](C)C(=O)N[C@@H](Cc1c[nH]c2ccccc12)C(=O)N[C@@H](CCCN=C(N)N)C(=O)N[C@@H](CC(N)=O)C(=O)N[C@@H](CCCN=C(N)N)C(=O)O [RRWVAWRNR] | 96 µM (≈ 125 µg/mL) | 96 µM (≈ 125 µg/mL) |  |  | 
7 | CC[C@H](C)[C@H](NC(=O)[C@H](CC(C)C)NC(=O)[C@H](C)NC(=O)[C@@H]1CCCN1C(=O)[C@H](CC(C)C)NC(=O)CN)C(=O)N[C@@H](CO)C(=O)N[C@@H](Cc1c[nH]c2ccccc12)C(=O)N[C@H](C(=O)N[C@@H](CCCCN)C(=O)N[C@@H](CCCN=C(N)N)C(=O)N[C@@H](CCCCN)C(=O)N[C@@H](CCCN=C(N)N)C(=O)NCC(=O)NCC(N)=O)[C@@H](C)CC [GLPALISWIKRKRGG] |  |  | 47.4 (≈ 78.3 µg/mL) | 1.57 (≈ 2.6 µg/mL) | MIC [8]: 1.48 µM (≈ 2.45 µg/mL)

Further lines, with some results ahead:

Row | MIC [1] | MIC [2] | MIC [6] [µM] | MIC [7] [µM] | Structure (SMILES) | also measured
8 | 20 µM (≈ 37.2 µg/mL) | 20 µM (≈ 37.2 µg/mL) |  |  | CC(=O)N[C@@H](CC(C)C)C(=O)N[C@@H](CCCCN)C(=O)N[C@@H](CCCCN)C(=O)N[C@@H](CC(C)C)C(=O)N[C@@H](CC(C)C)C(=O)N[C@@H](CCCCN)C(=O)N[C@@H](CC(C)C)C(=O)N[C@@H](CC(C)C)C(=O)N[C@@H](CCCCN)C(=O)N[C@@H](CCCCN)C(=O)N[C@@H](CC(C)C)C(=O)N[C@@H](CC(C)C)C(=O)N[C@@H](CCCCN)C(=O)N[C@@H](CC(C)C)C(=O)N[C@@H](C)C(=O)NCC(N)=O [LKKLLKLLKKLLKLAG] | 
9 | > 76 µM | > 76 µM |  |  | CC[C@H](C)[C@H](NC(=O)[C@H](Cc1c[nH]c2ccccc12)NC(=O)CNC(=O)[C@H](CCCCN)NC(=O)CNC(=O)[C@H](Cc1ccccc1)NC(=O)[C@H](Cc1cnc[nH]1)NC(=O)[C@H](C)NC(=O)[C@H](C)NC(=O)[C@H](C)NC(=O)[C@H](CCCCN)NC(=O)CNC(=O)[C@H](Cc1ccccc1)NC(=O)[C@H](CCCCN)NC(=O)[C@H](C)NC(=O)[C@@H](NC(=O)CN)C(C)C)C(=O)N[C@@H](CCCCN)C(=O)N[C@@H](CCC(=O)O)C(=O)N[C@@H](CCSC)C(=O)N[C@@H](CC(C)C)C(=O)N[C@@H](CC(N)=O)C(=O)N[C@@H](CO)C(N)=O [GVAKFGKAAAHFGKGWIKEMLNS] | MIC [4]: > 76 µM
10 |  |  | 214 (≈ 500 µg/mL) | 214 (≈ 500 µg/mL) | CC[C@H](C)[C@H](NC(=O)CNC(=O)[C@H](CCCCN)NC(=O)[C@@H](NC(=O)[C@H](CC(C)C)NC(=O)[C@H](CO)NC(=O)CNC(=O)[C@H](CC(C)C)NC(=O)[C@H](CC(=O)O)NC(=O)[C@H](C)NC(=O)[C@H](CCCCN)NC(=O)[C@H](CC(C)C)NC(=O)[C@@H](NC(=O)[C@H](CCC(=O)O)NC(=O)[C@H](CCCCN)NC(=O)[C@H](Cc1ccccc1)NC(=O)CN)C(C)C)C(C)C)C(=O)N[C@@H](C)C(=O)N[C@@H](C)C(=O)N[C@@H](Cc1cnc[nH]1)C(=O)N[C@H](C(=O)N[C@@H](C)C(=O)N[C@@H](CC(N)=O)C(N)=O)C(C)C [GFKEVLKADLGSLVKGIAAHVAN] | MIC [5]: > 400 µM
11 |  |  | 55.5 (≈ 145 µg/mL) | 111 (≈ 291 µg/mL) | CC[C@H](C)[C@H](NC(=O)[C@H](CC(C)C)NC(=O)[C@H](Cc1cnc[nH]1)NC(=O)[C@@H](NC(=O)[C@@H](NC(=O)[C@H](C)NC(=O)CNC(=O)[C@H](CC(C)C)NC(=O)[C@H](C)NC(=O)[C@H](C)NC(=O)[C@H](CCCCN)NC(=O)CNC(=O)[C@@H](NC(=O)CNC(=O)[C@H](CCCCN)NC(=O)[C@@H](NC(=O)[C@@H](NC(=O)[C@H](CC(=O)O)NC(=O)[C@H](CC(C)C)NC(=O)[C@H](Cc1ccccc1)NC(=O)CN)C(C)C)C(C)C)C(C)C)C(C)C)[C@@H](C)O)C(=O)N[C@@H](CC(N)=O)C(=O)N[C@@H](CCC(N)=O)C(=O)NCC(=O)N[C@@H](CCC(=O)O)C(=O)N[C@@H](CCC(N)=O)C(N)=O [GFLDVVKGVGKAALGAVTHLINQGEQ] | MIC [5]: 222 µM (≈ 582 µg/mL)
12 |  |  | 12.5 (≈ 24.1 µg/mL) |  | CC[C@H](C)[C@H](NC(=O)[C@H](CO)NC(=O)[C@H](C)NC(=O)[C@@H](NC(=O)[C@H](CCCCN)NC(=O)[C@H](CCCCN)NC(=O)[C@H](Cc1c[nH]c2ccccc12)NC(=O)[C@H](CC(N)=O)NC(=O)[C@@H](N)CCCCN)[C@@H](C)CC)C(=O)NCC(=O)N[C@@H](CCCCN)C(=O)N[C@@H](CCC(=O)O)C(=O)N[C@H](C(=O)N[C@@H](CC(C)C)C(=O)N[C@@H](CCCCN)C(=O)N[C@@H](C)C(=O)N[C@@H](CC(C)C)C(N)=O)C(C)C [KNWKKIASIGKEVLKAL] | MIC [8]: ≥ 60 µM
13 |  |  | 27.5 (≈ 72.5 µg/mL) | 27.5 (≈ 72.5 µg/mL) | CC[C@H](C)[C@H](NC(=O)[C@H](CC(C)C)NC(=O)[C@H](Cc1cnc[nH]1)NC(=O)[C@@H](NC(=O)[C@@H](NC(=O)[C@H](C)NC(=O)CNC(=O)[C@H](CC(C)C)NC(=O)[C@H](C)NC(=O)[C@H](C)NC(=O)[C@H](CCCCN)NC(=O)CNC(=O)[C@@H](NC(=O)CNC(=O)[C@H](CCCCN)NC(=O)[C@H](CC(C)C)NC(=O)[C@@H](NC(=O)[C@H](CC(=O)O)NC(=O)[C@H](CC(C)C)NC(=O)[C@H](Cc1ccccc1)NC(=O)CN)C(C)C)C(C)C)C(C)C)[C@@H](C)O)C(=O)N[C@@H](CC(N)=O)C(=O)N[C@@H](CCC(N)=O)C(=O)NCC(=O)N[C@@H](CCC(=O)O)C(=O)N[C@@H](CCC(N)=O)C(N)=O [GFLDVLKGVGKAALGAVTHLINQGEQ] | MIC [5]: 55.1 µM (≈ 145 µg/mL)
14 | 3.89 µM and 7.77 µM | 1.94 µM and 3.89 µM |  |  | CC[C@H](C)[C@H](NC(=O)[C@H](CCCCN)NC(=O)[C@H](CCCCN)NC(=O)[C@@H](NC(=O)[C@@H](NC(=O)[C@H](CCCCN)NC(=O)[C@H](Cc1ccccc1)NC(=O)[C@H](CC(C)C)NC(=O)CN)[C@@H](C)CC)[C@@H](C)CC)C(=O)N[C@@H](Cc1c[nH]c2ccccc12)C(=O)N[C@@H](CCCCN)C(=O)N[C@@H](CO)C(=O)N[C@@H](Cc1ccccc1)C(N)=O [GLFKIIKKIWKSF] | MIC [9]: 15.5 µM and 31.1 µM
